Reference: PubChem BioAssay AID248 (DTP/NCI, 2004)
Several values for one entry are separate records, joined by “and”; a condition that tells them apart may be missing. Equal values may be shown once. Toxic doses and inconclusive results are not listed. No stated cut-off is given here; in the data, active means T/C of 150% or more; inactive means T/C below 125%.

System: L1210 leukemia ip in BDF1 mice, survival T/C
Assay: NCI In Vivo Anticancer Drug Screen. Data for tumor model L1210 Leukemia (intraperitoneal) in B6D2F1 (BDF1) mice
Details: higher = longer survival
Procedure, shortened: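 Value reflects the ratio of survival in compound-treated mice to survival in vehicle-treated controls, with both groups carrying the same transplanted tumor.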

Measured: T/C

CC[C@](O)(C(=O)O)c1cc2n(c(=O)c1CO)Cc1cc3ccccc3nc1-2
inactive: endpoint: mean survival time, dose: 0.12 mg/kg/injection, schedule: Q#A X Z (ip), vehicle: saline 106 % of control | endpoint: mean survival time, dose: 0.18 mg/kg/injection, schedule: Q01DX009 (ip), vehicle: saline 105 % of control and 108 % of control | endpoint: mean survival time, dose: 0.25 mg/kg/injection, schedule: Q01DX006 (iv), vehicle: saline 107 % of control | endpoint: mean survival time, dose: 0.25 mg/kg/injection, schedule: Q01DX009 (ip), vehicle: saline 98 % of control | endpoint: mean survival time, dose: 0.25 mg/kg/injection, schedule: Q01DX010 (ip), vehicle: saline 117 % of control | endpoint: mean survival time, dose: 0.25 mg/kg/injection, schedule: Q01DX Z (im), vehicle: saline 107 % of control | endpoint: mean survival time, dose: 0.25 mg/kg/injection, schedule: Q01DX Z (sc), vehicle: saline 107 % of control | endpoint: mean survival time, dose: 0.25 mg/kg/injection, schedule: Q## X Z (ip), vehicle: saline 97 % of control | endpoint: mean survival time, dose: 0.25 mg/kg/injection, schedule: Q#A X Z (ip), vehicle: saline 114 % of control | endpoint: mean survival time, dose: 0.35 mg/kg/injection, schedule: Q01DX009 (ip), vehicle: saline 106 % of control and 113 % of control | endpoint: mean survival time, dose: 0.5 mg/kg/injection, schedule: Q01DX006 (iv), vehicle: saline 103 % of control | endpoint: mean survival time, dose: 0.5 mg/kg/injection, schedule: Q01DX009 (ip), vehicle: saline 104 % of control and 112 % of control | endpoint: mean survival time, dose: 0.5 mg/kg/injection, schedule: Q01DX009 (oral), vehicle: water 97 % of control | endpoint: mean survival time, dose: 0.5 mg/kg/injection, schedule: Q01DX Z (im), vehicle: saline 108 % of control | endpoint: mean survival time, dose: 0.5 mg/kg/injection, schedule: Q01DX Z (ip), vehicle: saline 122 % of control | endpoint: mean survival time, dose: 0.5 mg/kg/injection, schedule: Q01DX Z (oral), vehicle: saline 105 % of control | endpoint: mean survival time, dose: 0.5 mg/kg/injection, schedule: Q01DX Z (sc), vehicle: saline 107 % of control | endpoint: mean survival time, dose: 0.5 mg/kg/injection, schedule: Q## X Z (ip), vehicle: saline 103 % of control | endpoint: mean survival time, dose: 0.7 mg/kg/injection, schedule: Q01DX009 (ip), vehicle: saline 106 % of control and 108 % of control | endpoint: mean survival time, dose: 0.75 mg/kg/injection, schedule: Q03DX Z (ip), vehicle: saline 101 % of control | endpoint: mean survival time, dose: 1.0 mg/kg/injection, schedule: Q01DX006 (iv), vehicle: saline 111 % of control | endpoint: mean survival time, dose: 1.0 mg/kg/injection, schedule: Q01DX009 (ip), vehicle: saline 111 % of control and 112 % of control | endpoint: mean survival time, dose: 1.0 mg/kg/injection, schedule: Q01DX009 (oral), vehicle: water 113 % of control | endpoint: mean survival time, dose: 1.0 mg/kg/injection, schedule: Q01DX Z (im), vehicle: saline 113 % of control | endpoint: mean survival time, dose: 1.0 mg/kg/injection, schedule: Q01DX Z (oral), vehicle: saline 117 % of control | endpoint: mean survival time, dose: 1.0 mg/kg/injection, schedule: Q01DX Z (sc), vehicle: saline 113 % of control | endpoint: mean survival time, dose: 1.0 mg/kg/injection, schedule: Q## X Z (ip), vehicle: saline 114 % of control | endpoint: mean survival time, dose: 1.3 mg/kg/injection, schedule: Q## X008 (ip), vehicle: saline 102 % of control | endpoint: mean survival time, dose: 1.5 mg/kg/injection, schedule: Q03DX Z (ip), vehicle: saline 109 % of control | endpoint: mean survival time, dose: 2.0 mg/kg/injection, schedule: Q01DX001 (ip), vehicle: saline 106 % of control and 113 % of control (2×) | endpoint: mean survival time, dose: 2.0 mg/kg/injection, schedule: Q01DX006 (iv), vehicle: saline 114 % of control and 122 % of control | endpoint: mean survival time, dose: 2.0 mg/kg/injection, schedule: Q01DX010 (ip), vehicle: saline 110 % of control | endpoint: mean survival time, dose: 2.0 mg/kg/injection, schedule: Q01DX010 (oral), vehicle: saline 97 % of control | endpoint: mean survival time, dose: 2.0 mg/kg/injection, schedule: Q01DX Z (im), vehicle: saline 116 % of control | endpoint: mean survival time, dose: 2.0 mg/kg/injection, schedule: Q01DX Z (sc), vehicle: saline 114 % of control and 120 % of control | endpoint: mean survival time, dose: 2.0 mg/kg/injection, schedule: Q07DX Z (ip), vehicle: saline 109 % of control | endpoint: mean survival time, dose: 2.5 mg/kg/injection, schedule: Q01DX001 (oral), vehicle: water 111 % of control | endpoint: mean survival time, dose: 2.5 mg/kg/injection, schedule: Q04DX002 (ip), vehicle: saline 100 % of control and 108 % of control | endpoint: mean survival time, dose: 2.5 mg/kg/injection, schedule: Q04DX003 (ip), vehicle: saline 110 % of control | endpoint: mean survival time, dose: 2.5 mg/kg/injection, schedule: Q## X003 (ip), vehicle: saline 105 % of control and 109 % of control | endpoint: mean survival time, dose: 2.5 mg/kg/injection, schedule: Q## X003 (oral), vehicle: saline 107 % of control | endpoint: mean survival time, dose: 2.5 mg/kg/injection, schedule: Q## X003 (oral), vehicle: water 107 % of control | endpoint: mean survival time, dose: 2.5 mg/kg/injection, schedule: Q## X008 (ip), vehicle: saline 98 % of control | endpoint: mean survival time, dose: 2.6 mg/kg/injection, schedule: Q## X024 (ip), vehicle: saline 101 % of control | endpoint: mean survival time, dose: 2.6 mg/kg/injection, schedule: Q## X024 (oral), vehicle: water 100 % of control | endpoint: mean survival time, dose: 3.0 mg/kg/injection, schedule: Q01DX Z (sc), vehicle: saline 120 % of control | endpoint: mean survival time, dose: 3.0 mg/kg/injection, schedule: Q03DX Z (ip), vehicle: saline 118 % of control | endpoint: mean survival time, dose: 4.0 mg/kg/injection, schedule: Q01DX001 (ip), vehicle: saline 105 % of control and 110 % of control and 116 % of control | endpoint: mean survival time, dose: 4.0 mg/kg/injection, schedule: Q01DX009 (oral), vehicle: water 120 % of control | endpoint: mean survival time, dose: 4.0 mg/kg/injection, schedule: Q01DX Z (ip), vehicle: saline 97 % of control and 116 % of control | endpoint: mean survival time, dose: 4.0 mg/kg/injection, schedule: Q01DX Z (oral), vehicle: saline 101 % of control | endpoint: mean survival time, dose: 4.5 mg/kg/injection, schedule: Q01DX006 (iv), vehicle: saline 122 % of control | endpoint: mean survival time, dose: 4.5 mg/kg/injection, schedule: Q01DX Z (im), vehicle: saline 93 % of control | endpoint: mean survival time, dose: 5.0 mg/kg/injection, schedule: Q01DX001 (oral), vehicle: water 115 % of control | endpoint: mean survival time, dose: 5.0 mg/kg/injection, schedule: Q04DX002 (ip), vehicle: saline 110 % of control and 113 % of control | endpoint: mean survival time, dose: 5.0 mg/kg/injection, schedule: Q04DX003 (ip), vehicle: saline 116 % of control | endpoint: mean survival time, dose: 5.0 mg/kg/injection, schedule: Q04DX003 (ip), vehicle: water 118 % of control and 120 % of control | endpoint: mean survival time, dose: 5.0 mg/kg/injection, schedule: Q## X003 (ip), vehicle: saline 114 % of control | endpoint: mean survival time, dose: 5.0 mg/kg/injection, schedule: Q## X003 (oral), vehicle: water 121 % of control | endpoint: mean survival time, dose: 5.0 mg/kg/injection, schedule: Q## X008 (ip), vehicle: saline 105 % of control | endpoint: mean survival time, dose: 5.0 mg/kg/injection, schedule: Q## X024 (ip), vehicle: saline 120 % of control | endpoint: mean survival time, dose: 6.0 mg/kg/injection, schedule: Q01DX001 (ip), vehicle: saline 110 % of control | endpoint: mean survival time, dose: 6.5 mg/kg/injection, schedule: Q01DX006 (iv), vehicle: saline 112 % of control | endpoint: mean survival time, dose: 6.5 mg/kg/injection, schedule: Q01DX Z (sc), vehicle: saline 105 % of control | endpoint: mean survival time, dose: 8.0 mg/kg/injection, schedule: Q01DX001 (ip), vehicle: saline 105 % of control and 115 % of control | endpoint: mean survival time, dose: 8.0 mg/kg/injection, schedule: Q01DX009 (ip), vehicle: saline 120 % of control | endpoint: mean survival time, dose: 10.0 mg/kg/injection, schedule: Q01DX001 (ip), vehicle: saline 112 % of control | endpoint: mean survival time, dose: 10.0 mg/kg/injection, schedule: Q## X008 (ip), vehicle: saline 117 % of control | endpoint: mean survival time, dose: 10.0 mg/kg/injection, schedule: Q## X008 (oral), vehicle: water 121 % of control | endpoint: mean survival time, dose: 19.0 mg/kg/injection, schedule: Q03DX Z (ip), vehicle: saline 121 % of control | endpoint: mean survival time, dose: 50.0 mg/kg/injection, schedule: Q04DX003 (ip), vehicle: saline 105 % of control | endpoint: mean survival time, dose: 80.0 mg/kg/injection, schedule: Q04DX003 (ip), vehicle: saline 114 % of control | endpoint: mean survival time, dose: 160.0 mg/kg/injection, schedule: Q## X003 (ip), vehicle: saline 110 % of control | endpoint: mean survival time, dose: 125.0 micrograms/kg/injection, schedule: Q01DX Z (ip), vehicle: saline 111 % of control | endpoint: mean survival time, dose: 250.0 micrograms/kg/injection, schedule: Q01DX Z (ip), vehicle: saline 114 % of control | endpoint: median survival time, dose: 5.0 mg/kg/injection, schedule: Q04DX003 (ip), vehicle: saline 122 % of control | endpoint: median survival time, dose: 50.0 mg/kg/injection, schedule: Q01DX001 (ip), vehicle: saline 110 % of control and 119 % of control | endpoint: median survival time, dose: 83.3 mg/kg/injection, schedule: Q04DX003 (ip), vehicle: saline 110 % of control and 121 % of control | endpoint: median survival time, dose: 100.0 mg/kg/injection, schedule: Q04DX003 (ip), vehicle: saline 94 % of control and 116 % of control | endpoint: median survival time, dose: 148.0 mg/kg/injection, schedule: Q01DX001 (ip), vehicle: saline 115 % of control
